“Also recorded” adds a separate entry of the source.
How the values were obtained:
MEF E16 cells = test: immunocytochemical staining for DCX and Map2ab in MEF cultures (neuronal differentiation); format: cell-based, mouse; conditions: Neurobasal plus 1% FCS, 10 μM, 7 days; for number of DCX/Map2ab double positive cells: FIG. 3B
Procedure: Following the results from the Luciferase assay described in Example 17, the inventors examined the ability of compounds according to the invention and reference compounds to promote differentiation of MEF E16 cells, using immunocytochemical staining with DCX and Map2ab antibodies.
Compound 1a at 10 and 100 μM was analyzed for its effect on the expression of the neuronal specific markers DCX and Map2ab using primary fetal mouse brain derived cells stimulated in DMEM-KO media.
Mouse embryonic day 16 forebrain cells were prepared as described in Example 17. Before seeding the cells, glass-coverslips were coated and prepared. Glass-coverslips (13 mm) (Menzel GmbH, Braunschweig, Germany) were incubated in 1 M HCl at 65° C. overnight and stored in isopropanol until further use. Coverslips were put into 24-well test plates and air-dried. Subsequently coverslips were incubated for 1 h with 100 μg/ml Poly-L-ornithin solution at 37° C. After washing three times with sterile water coverslips were incubated with 5 μg/ml Laminin solution for 2 h. Immediately after removal of the Laminin solution cells were seeded (40.000 cells/well) in DMEM-KO plus supplement or in NB-B27 plus 1% FCS medium. One day later, cells had attached to the substrate. Cells were stimulated with the above-mentioned substances (in DMEM-KO plus supplement medium: 10 μM and 100 μM; in NB-B27 plus 1% FCS medium: 10 μM) for 3 or 7 days. In the 7 day group, medium including the substances was replaced after three days. Cultures were maintained at 37° C. in a humidified incubator with 5% CO2.
Cells were fixed with phosphate-buffered 4% paraformaldehyde (Sigma-Aldrich, Taufkirchen, Germany). […] The specimens were incubated overnight at 4° C. with the primary antibodies at the following dilutions in FSGB: rabbit anti Doublecortin (DCX) 1:500 (NEB, Frankfurt, Germany) and mouse anti-Map 2a+2b 1:400 (Sigma-Aldrich, Taufkirchen, Germany). After washing three times with FSGB, cells were incubated with the species-specific secondary antibodies, which were conjugated to fluorochromes, for 2 hours in the dark at room temperature. To remove unbound secondary antibodies, cells were washed again with PBS. Nuclear counterstaining was performed with 4′,6′-diamidino-2-phenylindole dihydrochloride hydrate (DAPI) at […] (Sigma Aldrich, Taufkirchen, Germany). Finally, cells were washed again three times with PBS and mounted on microscope slides using Prolong Antifade reagent (Invitrogen, Oreg., USA).
The immunostainings were examined using Olympus IX81 inverted research microscope and the software Volocity 5.3.1. To quantify the number of cells, five indiscriminately chosen visual fields per coverslip were selected under a focus of 40 times. The total number of cells (DAPI positive cells), the number of DCX positive, Map2ab positive, and DCX/Map2ab double positive cells was determined.

[1] = system: promoter of the neuronal precursor specific gene doublecortin (DCX); test: DCX promoter firefly-luciferase assay in primary fetal mouse brain derived (MEF) cells; format: cell-based; conditions: for stimulatory effect on the DCX promoter activity (FF/R relative to control): DCX promoter-luciferase transfected MEF cells, stimulated three days; for effect on DCX promoter induction: 10 μM, MEF cells, three days
Procedure: Primary mouse embryonic day 16 forebrain (MEF) cultures were prepared as follows. Pregnant NMRI mice (Charles River Laboratories, Sulzfeld, Germany) were sacrificed and the uteri promptly removed and immersed in ice-cold Dulbecco's phosphate buffered saline solution—DPBS (PAA, Pasching, Austria). Eight embryonic day (E) 16 embryos were released from the uteri; forebrains were taken out, separated from surrounding tissues and mechanically dissociated using a razor blade. Subsequently the dissociated cells were collected by 5 min centrifugation at 120×g. The pellet was resuspended in 10 ml PPD-solution containing 0.01% papain (Worthington, England), 0.1% Dispasell (Roche, Basel, Switzerland), 0.01% DNasel (Worthington, England), 12.4 mM MgSO4 dissolved in HBSS w/o Ca/Mg (PAA, Pasching, Austria). The cell suspension was incubated at 37° C. and triturated every ten minutes for three times. The cell suspension was then centrifuged at 120×g for 5 minutes and washed three times in Neurobasal medium (Gibco BRL, Germany) supplemented with 2% (v/v) B27 (Gibco BRL, Karlsruhe), 2 mM L-glutamine, 100 μg/ml Penicillin/Streptomycin (PAN Biotech GmbH, Aidenbach, Germany). Finally, the cell preparation was resuspended in 12 ml Neurobasal medium supplemented with B27 (Gibco BRL, Karlsruhe), 2 mM L-glutamine, 100 μg/ml Penicillin/Streptomycin (PAN Biotech GmbH, Aidenbach, Germany), 20 ng/ml Epidermal Growth Factor—rhEGF, 20 ng/ml Fibroblast Growth Factor—rhFGF (R&D Systems, Wiesbaden-Nordenstadt, Germany) and 2 μg/ml Heparin (Sigma-Aldrich, Taufkirchen, Germany) (NB plus all), seeded in one T75 flask (TPP, Switzerland) and maintained in a humidified atmosphere at 37° C. and 5% CO2. […] On this day (day 2), half of the medium was refreshed and on day 4 cells were passaged. To passage the cells, the culture medium containing the floating neurospheres was collected in a 15 ml tube (Corning, Lowell, USA) and centrifuged at 120×g for 5 min. For dissociation, the pellet was resuspended in 500 μl Accutase (PAA, Pasching, Austria) and triturated using a 1 ml pipette. The cell suspension was incubated at 37° C. for 10 min, and then, 10 ml media were added. Cell number was determined by Trypan blue exclusion.
Luciferase assays were performed using a noncommercial dual luciferase enzyme assay system (Dyer et al., 2000, Anal Biochem). In this system, a co-transfection with pDCX-Luci and a control vector driving Renilla-luciferase under the CMV promoter was performed. The two different luciferases have different specific substrates and, therefore, the DCX regulatory region driven firefly luciferase activity can be distinguished from CMV driven Renilla-luciferase. For analysis, the firefly luciferase activity was normalized against the CMV driven Renilla-luciferase. For each transfection reaction, a volume containing two million cells was transferred into a 15 ml tube (Corning, Lowell, USA), centrifuged at 120×g for 5 min to pellet the cells and resuspended in 100 μl Amaxa Mouse Neural Stem Cell Nucleofector Kit (Lonza, Kln, Germany). Then, pDCX-Luci (Karl, 2005) and pRL3 (Promega, Mannheim, Germany) (5 μg each) were added and the entire reaction mix was transferred into an Amaxa transfection cuvette. Transfection was done using the A-033 program in the Amaxa Nucleofector II (Lonza, Kln, Germany). Transfected cells were then pipetted into 20 ml of DMEM knockout medium (Gibco BRL, Germany) containing 20% serum replacement supplement (PAN Biotech GmbH, Aidenbach, Germany), 2 mM L-glutamine (PAN Biotech GmbH, Aidenbach, Germany) and 100 μg/ml Penicillin/Streptomycin (PAN Biotech GmbH, Aidenbach, Germany) (DMEM-KO plus supplements) in a 50 ml tube (Corning, Lowell, USA). From this resulting cell suspension, 200 μl per well were plated in Poly-Ornithine/Laminin coated 96-well-luciferase plates (Wimmer & Macho, Wels, Austria) in a cell density of 20.000 cells per well, as described herein below.

| Compound | number of DCX/Map2ab double positive cells (MEF E16 cells) | stimulatory effect on the DCX promoter activity (FF/R relative to control) [1] | effect on DCX promoter induction [1] | number of DCX positive cells (MEF E16 cells; FIG. 3A) |
| --- | --- | --- | --- | --- |
| CC(C)=CCc1c(O)cc2c(c1O)C(=O)CC(c1ccc(O)cc1)O2 (centres unmarked) [6-prenylnaringenin, 5,7-dihydroxy-2-(4-hydroxyphenyl)-6-(3-methylbut2-en-1yl)chroman-4-one] | Good results | – | – | – |
| COc1cc2c(c(O)c1C(=O)/C=C/c1ccc(O)c(O)c1)C=CC(C)(C)O2 [Compound 1e, (2E)-1-(5-Hydroxy-7-methoxy-2,2-dimethyl-2H-chromen-6-yl)-3-(3,4-dihydroxyphenyl)prop-2-en-1-one] | – | significantly and strongly induce; also recorded: very strong and significant stimulatory effect | – | – |
| CC1(C)C=Cc2c(cc(O)c3c2OC(c2ccc(O)cc2)CC3=O)O1 (centres unmarked) [Compound 3b, 5-Hydroxy-2-(4-hydroxy-phenyl)-8,8-dimethyl-2,3-dihydro-8H-pyrano[2,3-f]chromen-4-one] | – | – | good results | – |
| COc1cc2c(c(O)c1C(C)=O)C=CC(C)(C)O2 [ENDF4, 1-(5-hydroxy-7-methoxy-2,2-dimethyl-2H-chromen-6-yl)-ethanone] | Good results; also recorded: increased slightly more | did not have any significant stimulatory effect | – | strongly enhanced the number of DCX positive cells |
| COc1cc2c(c(O)c1C(=O)/C=C/c1ccc3c(c1)OCO3)C=CC(C)(C)O2 [Compound 1f, (2E)-3-(benzo[d][1,3]dioxol-6-yl)-1-(5-hydroxy-7-methoxy-2,2-dimethyl-2H-chromen-6-yl)prop-2-en-1-one] | – | significantly and strongly induce; also recorded: very strong and significant stimulatory effect | – | – |
| Cc1c(C)c2c(c(C)c1O)CCC(C)(C)O2 [chromanol, 2,2,5,7,8-Pentamethyl-6-chromanol, reference compound] | marginally increase | did not have any significant stimulatory effect | – | – |
| Cc1c(C)c2c(c(C)c1O)CCC(C)(CCCC(C)CCCC(C)CCCC(C)C)O2 (racemic) [tocopherol, 2,5,7,8-tetramethyl-2-(4,8,12 trimethyltridecyl)chroman-6-ol] | marginally increase | – | – | – |
| COc1cc2c(c(O)c1C(=O)/C=C/c1ccc(O)cc1)C=CC(C)(CCC=C(C)C)O2 (centres unmarked) [Compound 1g, (2E)-1-(5-hydroxy-7-methoxy-2-methyl-2-(4-methylpent-3-enyl)-2H-chromen-6-yl)-3-(4-hydroxyphenyl)prop-2-en-1-one] | – | – | good results | – |
| COc1cc(O)c(CC=C(C)C)c2c1C(=O)CC(c1ccc(O)cc1)O2 (centres unmarked) [isoxanthohumol, 7-hydroxy-2-(4-hydroxyphenyl)-5-methoxy-8-(3-methylbut-2-en-1-yl)chroman-4-one, reference compound] | Good results | did not have any significant stimulatory effect | – | – |
| COc1cc2c(c(O)c1C(=O)CCc1ccc(O)cc1)CCC(C)(C)O2 [Compound 1c, 1-(5-hydroxy-7-methoxy-2,2-dimethylchroman-6-yl)-3-(4-hydroxyphenyl)propan-1-one] | – | significantly and strongly induce; also recorded: very strong and significant stimulatory effect | – | – |
| CC1(C)C=Cc2c(cc3c(c2O)C(=O)CC(c2ccc(O)cc2)O3)O1 (centres unmarked) [Compound 2a, 5-Hydroxy-2-(4-hydroxy-phenyl)-8,8-dimethyl-2,3-dihydro-8H-pyrano[3,2-g]chromen-4-one] | – | stimulatory effect on the DCX promoter activity was also observed | good results | – |
| CC(C)=CCc1c(O)cc(O)c2c1OC(c1ccc(O)cc1)CC2=O (centres unmarked) [8-prenylnaringenin, 5,7-dihydroxy-2-(4-hydroxyphenyl)-8-(3-methylbut2-en-1yl)chroman-4-one] | Good results | – | – | – |
